Assay results reported in patent US7977336B2, “Aminopyrimidine derivatives as PLK1 inhibitors” (Banyu Pharmaceutical Co. Ltd, priority 2006, dated 2011).
pEC50, pIC50: −log10 of the molar value.

How the values were obtained:
HeLaS3 cells = assay: Inhibitory effect against cell proliferation: PLK1 inhibition at cellular level (M phase arrest, phospho-histone H3); assay type: cell-based; settings: Homo sapiens, HeLa S3, 18 hours after addition, concentration inducing 50% of maximum ratio of cells arrested at M phase (histone H3 Ser10 phosphorylation)
Method: 3. Measurement of the Inhibitory Effect against Cell Proliferation: Measurement of the Inhibitory Activity Against PLK1 at Cellular Level
For the measurement of the PLK 1 inhibitory activity of the compound at a cellular level, human uterine cervix cancer cell lines HeLaS3 cells were used. The HeLaS3 cell was obtained from American Type Culture Collection (ATTC), and cultured in a CO2-incubator of saturated steam by using Dulbecco's Modified Eagle's Medium containing 10% fetal calf serum at 37° C. in the presence of 5% CO2.
It has been reported that PLK 1 plays an important role in various stages of mitotic phase (M-phase) in mammalian cells (Nature Review Molecular Cell Biology (Nat. Rev. Mol. Cell. Biol.), Vol. 5, 429, (2004)). In fact, when mammalian cells are treated with PLK 1 siRNA to control the expression level, the cell cycle progression is inhibited and thus the cells are arrested at M phase. At the time, when the phosphorylation level of 10th serine residue on histone H3, which is thought to be required for a chromosome condensation in M phase, is examined, then it is observed that the level is enhanced to a high level. Thus, after treating the cells with the compound according to the invention, the phosphorylation level of histone H3 was examined by the indirect fluorescent antibody technique; the M phase cells were identified by using the level thereof as an indicator to analyze the ratio of cells arrested at M phase; and further EC50 value of each compound was calculated to evaluate the PLK1 inhibitory activity at a cellular level.
First, HeLaS3 cells were seeded into a lysine-treated 96-well plate (Falcon Corp.) in the proportion of 3,000 per one well, and allowed to stand still in the above-mentioned CO2 incubator. 24 hours after the seeding, the compound according to the invention, which is diluted in series, was added into each well of the plate, and further allowed to stand still in the CO2 incubator. 18 hours after the addition of the compound according to the invention, the culture medium containing the compound according to the invention in each well of the plate was removed, and then 100 μL of ice-cold 100% methanol (Wako Pure Chemical Industries, Ltd.) was added, to carry out cell fixation for 10 minutes and treatment of increasing the membrane permeability. Subsequently, to the wells in which the methanol was removed, 50 μL of 1% BSA/PBS was added, and then blocking was carried out for 30 minutes. Thereafter, for the primary antibody reaction, 50 μL of 1% BSA/PBS containing a […] Anti-phospho Histone H3 (Ser10) antibody (Upstate Corp.) was added to the wells, and the plate was left over at room temperature for 90 minutes. After terminating the reaction, each well was once washed with PBS; and for the second antibody reaction, 50 μL of 1% BSA/PBS containing […] Cy5-labelled antirabbit IgG (H+L) antibody (Chemicon) and 10 ug/mL DAPI (Sigma) which is a nucleus staining regent, was added, and further left over at room temperature for 90 minutes. After terminating the reaction, the reaction solution in wells was removed and replaced with 100 μL of PBS, and then fluorescence images were captured by using IN Cell Analyzer 1000 (manufactured by GE Amersham) to analyze the ratio of M phase cells (Mitotic index) in each view. When the maximum value of the ratio of cells arrested at M phase which can be induced by each drug is assumed as 100%, the drug concentration required for inducing 50% out of that 100% is defined as EC50.

PLK1 (Wild Type) = molecular target: T1, PLK1 (Wild Type) (Homo sapiens, UniProt P53350); assay: Inhibitory effect against PLK1 activity (Method B), PLK1 wild type, [γ-33P]ATP peptide phosphorylation; assay type: biochemical; settings: 10 μM ATP, 20 μM substrate peptide, 25° C., 120 minutes
T1 construct: the N terminus of a full-length cDNA of a wild type PLK1 is fused with GST; purchased Carna Biosciences Inc; host or cells: insect cell (baculovirus)
Source text: 2. Measurement of Inhibitory Effect against PLK1 Activity (Method B)
Human PLK1 was purchased from Carna Biosciences Inc. According to the Product Information from Carna Biosciences Inc., the present enzyme is an enzyme obtained by preparing a baculovirus for which the N terminus of a full-length cDNA of a wild type PLK1 is fused with GST (glutathione S-transferase), followed by highly expressing PLK1 transfected into an insect cell as a GST-fused protein, and then carrying out a purification with the use of glutathione sepharose chromatography.
For the measurement of the PLK1 activity, a synthetic peptide (arginine-arginine-arginine-aspartic acid-glutamic acid-leucine-methionine-glutamic acid-alanine-serine-phenylalanine-alanine-aspartic acid-glutamine-glutamic acid-alanine-lysine-valine) (SEQ. ID. NO.: 1) in which the serine surrounding sequence of the amino acid sequence No. 198 of CDC25C having been reported as the site for PLK1 substrate [EMBO Report, 3rd edition, 341 (2002)] is altered, was used as a substrate for the PLK1.
The reaction was carried out in accordance with the method as described by Toyoshima-Morimoto et al. [Nature, Vol. 410, 215-220, (2001)]. The volume of the reaction solution was 10.5 μl and the composition of the reaction buffer was a 20 mM Tris-HCl buffer (pH 7.4)/10 mM magnesium chloride/0.5 mM dithiothreitol/1 mM EGTA (ethylene glycol-bis (beta-aminoethylether-N,N,N′,N′-tetraacetic acid). Thereto, purified PLK1, 20 μM of the substrate peptide, 10 μM of non-labeled adenosine triphosphate (ATP), and 0.3 μCi [γ-^33P]-labeled ATP (>2500 Ci/mmole) were added to perform the reaction at a reaction temperature of 25° C. for 120 minutes. Thereafter, 20 μI of a 350 mM phosphate buffer was added to the reaction system to terminate the reaction, and the resultant solution was spotted onto a multi-screen phosphocellulose filter on a 384-well plate. After the phosphocellulose filter is washed with a 75 mM phosphate buffer and then dried, the radioactivity was measured with a liquid cintillation counter. The non-labeled and [γ-^33P]-labeled ATPs, and the multi-screen phosphocellulose filter were purchased from GE Healthcare Bio-Sciences, and Millipore Corporation, respectively.
Addition of the compound of the present invention to the reaction system was carried out by adding 0.5 μl of the solution prepared by preliminarily dissolving the compound in dimethylsulfoxide at a 20-fold concentration of the final concentration. A control was provided by adding 0.5 μl of dimethylsulfoxide to the reaction system.

PLK1-T210D = molecular target: T2, PLK1-T210D (Homo sapiens, UniProt P53350, T210D); assay: Inhibitory effect against PLK1 activity (Method A), PLK1-T210D, [γ-33P]ATP peptide phosphorylation; assay type: biochemical; settings: 50 μM ATP, 50 μM substrate peptide, 25° C., 20 minutes
T2 construct: GST (N, cleaved yes); made in house; host or cells: Spodoptera frugiperda Sf9 insect cells (baculovirus)
Source text: 1. Measurement of the Inhibitory Effect against PLK 1 Activity (Method A)
It has been known that 210th codon of human PLK1 which originally codes for threonine can be changed to an active type by altering the site into aspartic acid [Molecular and Cell Biology (Mol. Cell. Biol.), 17th edition, 3408 (1997)]. In order to obtain a human active type PLK1 protein, cDNA of mutated PLK1 (PLK1-T210D) of which the 210th codon codes for aspartic acid by substituting a base in the 210th codon of human PLK1 cDNA, was prepared. A baculovirus for which the N terminus of the PLK1-T210D cDNA is fused with GST (glutathione S-transferase) was prepared, and then the PLK1-T210D transfected into a Spodoptera frugiperda (Sf) 9 insect cell was highly expressed as a GST-fused protein. The cells were recovered and suspended in a lysis buffer (50 mM tris-hydrochloric acid buffer (pH 7.4)/150 mM sodium chloride/1 mM EDTA (ethylenediamine tetraacetic acid)/1 mM dithiothreitol/0.1% polyoxyethylene sorbitan monolaurate) to break cells with sonicator, and supernatant was recovered after a centrifugation. The supernatant was reacted on glutathione sepharose beads, and then the beads were washed with a lysis buffer. Thereafter, the beads were reacted in a lysis buffer containing Precision Protease (available from GE Healthcare Bioscience Company) to recover supernatant. […]
The reaction was carried out in accordance with the method of Toyoshima-Morimoto et al. [Nature, Vol. 410, 215-220, (2001)]. […] After washing the phosphocellulose filter with 75 mM phosphate buffer, the filter was dried to measure the radioactivity with a liquid scintillation counter. […]

T1 sequence (P53350 whole entry, the tested form may be a part): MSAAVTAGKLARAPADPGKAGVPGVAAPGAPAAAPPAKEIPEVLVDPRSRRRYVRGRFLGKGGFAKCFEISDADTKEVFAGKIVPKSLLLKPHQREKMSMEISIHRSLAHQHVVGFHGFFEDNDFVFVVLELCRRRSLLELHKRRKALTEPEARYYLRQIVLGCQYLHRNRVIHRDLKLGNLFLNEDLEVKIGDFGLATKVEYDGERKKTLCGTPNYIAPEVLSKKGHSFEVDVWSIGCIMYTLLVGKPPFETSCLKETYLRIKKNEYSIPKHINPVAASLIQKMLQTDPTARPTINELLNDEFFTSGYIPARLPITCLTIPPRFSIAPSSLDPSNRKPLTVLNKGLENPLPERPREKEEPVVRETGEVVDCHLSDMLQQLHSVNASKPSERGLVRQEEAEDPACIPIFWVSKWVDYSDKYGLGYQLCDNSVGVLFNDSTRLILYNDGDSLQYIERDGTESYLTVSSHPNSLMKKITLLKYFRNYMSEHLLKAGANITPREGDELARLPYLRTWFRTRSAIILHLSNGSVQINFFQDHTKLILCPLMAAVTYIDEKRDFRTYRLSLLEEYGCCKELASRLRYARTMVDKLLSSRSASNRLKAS
T2 sequence (P53350 whole entry T210D): as the sequence (P53350 whole entry, the tested form may be a part) above, with T210D counted along it

SMILES	pEC50 (HeLaS3 cells)	pIC50 (PLK1 (Wild Type))	pIC50 (PLK1-T210D)
C[C@H](Nc1ncc(C#N)c(-c2cnc3c(C4CC4)cccn23)n1)c1ccc([C@H](O)[C@@]2(C)CCCN2C)cc1 [Example 66, 4-(8-cyclopropylimidazo[1,2-a]pyridin-3-yl)-2-[((1S)-1-{4-[(S)-[(2R)-1,2-dimethylpyrrolidin-2-yl](hydroxy)methyl]phenyl}ethyl)amino]pyrimidine-5-carbonitrile]	8.54	8.74	–
C[C@H](Nc1ncc(F)c(-c2cnc3c(Cl)cccn23)n1)c1ccc([C@H](O)CNC(C)(C)C)cc1 [Example 67, (1S)-2-(tert-butylamino)-1-[4-((1S)-1-{[4-(8-chloroimidazo[1,2-a]pyridin-3-yl)-5-fluoropyrimidin-2-yl]amino}ethyl)phenyl]ethanol]	8.40	8.59	–
CCc1cccn2c(-c3nc(N[C@@H](C)c4ccc(C(O)[C@H]5CCCN5C)cc4)ncc3C#N)cnc12 (stereo partly drawn) [Example 55, 4-(8-ethylimidazo[1,2-a]pyridin-3-yl)-2-{[(1S)-1-(4-{hydroxy[(2R)-1-methylpyrrolidin-2-yl]methyl}phenyl)ethyl]amino}pyrimidine-5-carbonitrile]	8.30	–	7.96
C[C@H](Nc1ncc(F)c(-c2cnc3c(Cl)cccn23)n1)c1ccc([C@H](O)CNC2(C)CCCC2)cc1 [Example 71, (1S)-1-[4-((1S)-1-{[4-(8-chloroimidazo[1,2-a]pyridin-3-yl)-5-fluoropyrimidin-2-yl]amino}ethyl)phenyl]-2-[(1-methylcyclopentyl)amino]ethanol]	8.46	8.66	–
CC(C)N1CC(C(O)c2ccc([C@H](C)Nc3ncc(F)c(-c4cnc5c(Cl)cccn45)n3)cc2)C1 (single isomer, unassigned) [Example 89]	7.86	8.62	–
CCc1cccn2c(-c3nc(N[C@@H](C)c4ccc(C(O)[C@@H]5CCCN(C)C5)cc4)ncc3C#N)cnc12 (single isomer, unassigned) [Example 43]	8.40	8.85	8.15
C[C@H](Nc1ncc(F)c(-c2cnc3c(Cl)cccn23)n1)c1ccc(C(O)C(C)(C)N(C)C)cc1 (single isomer, unassigned) [Example 85]	7.96	8.47	–
CCc1cccn2c(-c3nc(N[C@@H](C)c4ccc([C@H](O)CNC(C)(C)C)cc4)ncc3C#N)cnc12 [Example 5, 2-[((1S)-1-{4-[(1S)-2-(tert-butylamino)-1-hydroxyethyl]phenyl}ethyl)amino]-4-(8-ethylimidazo[1,2-a]pyridin-3-yl)pyrimidine-5-carbonitrile]	8.59	8.64	–
Cc1cnc(N[C@@H](C)c2ccc([C@H](O)CNC(C)(C)C)cc2)nc1-c1cnc2c(C3CC3)cccn12 [Example 73, (1S)-2-(tert-butylamino)-1-[4-((1S)-1-{[4-(8-cyclopropylimidazo[1,2-a]pyridin-3-yl)-5-methylpyrimidin-2-yl]amino}ethyl)phenyl]ethanol]	8.24	8.00	–
CCc1cccn2c(-c3nc(N[C@@H](C)c4ccc(C(O)C5CCN(C)CC5)cc4)ncc3C#N)cnc12 (single isomer, unassigned) [Example 24]	8.34	8.85	8.39
